Measurements: ChEMBL document CHEMBL1201861, “Genomics of Drug Sensitity in Cancer screening data, Wellcome Trust Sanger Institute”

What was measured:
Test in all cases: cells
SW1710 = assay type: functional, cell-based, Homo sapiens; conditions: Homo sapiens, SW1710;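 note: growth inhibition of SW1710 cells, determined with a cell viability assay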
Description: SANGER: Inhibition of human SW1710 cell growth in a cell viability assay.

P30-OHK = assay type: functional, cell-based; conditions: Homo sapiens;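 note: growth inhibition of the P30-OHK cell line, read out with a cell viability assay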
Description: SANGER: Inhibition of human P30-OHK cell growth in a cell viability assay.

NCI-H1650 = assay type: functional, cell-based, Homo sapiens; conditions: Homo sapiens, NCI-H1650;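 note: growth inhibition of human NCI-H1650 cells measured by a cell viability assay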
Description: SANGER: Inhibition of human NCI-H1650 cell growth in a cell viability assay.

NB13 = assay type: functional, cell-based, Homo sapiens; conditions: Homo sapiens, NB13;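 note: cell viability readout measuring growth inhibition of human NB13 cells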
Description: SANGER: Inhibition of human NB13 cell growth in a cell viability assay.

CP66-MEL = assay type: functional, cell-based, Homo sapiens; conditions: Homo sapiens, CP66-MEL;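 note: growth inhibition of CP66-MEL cells determined in a cell viability assay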
Description: SANGER: Inhibition of human CP66-MEL cell growth in a cell viability assay.

MMAC-SF = assay type: functional, cell-based, Homo sapiens; conditions: Homo sapiens, MMAC-SF;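 note: growth inhibition of human MMAC-SF cells, read out with a cell viability assay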
Description: SANGER: Inhibition of human MMAC-SF cell growth in a cell viability assay.

IST-MES1 = assay type: functional, cell-based, Homo sapiens; conditions: Homo sapiens, IST-MES1;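 note: growth inhibition of IST-MES1 cells, measured with a cell viability assay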
Description: SANGER: Inhibition of human IST-MES1 cell growth in a cell viability assay.

EW-16 = assay type: functional, cell-based, Homo sapiens; conditions: Homo sapiens, EW-16;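 note: growth inhibition of human EW-16 cells, read out as cell viability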
Description: SANGER: Inhibition of human EW-16 cell growth in a cell viability assay.

NCI-H1563 = assay type: functional, cell-based, Homo sapiens; conditions: Homo sapiens, NCI-H1563;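 note: growth inhibition of human NCI-H1563 cells, read out with a cell viability assay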
Description: SANGER: Inhibition of human NCI-H1563 cell growth in a cell viability assay.

AU565 = assay type: functional, cell-based, Homo sapiens; conditions: Homo sapiens, AU565;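 note: cell viability assay measuring growth inhibition of human AU565 cells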
Description: SANGER: Inhibition of human AU565 cell growth in a cell viability assay.

NCI-H596 = assay type: functional, cell-based, Homo sapiens; conditions: Homo sapiens, NCI-H596;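 note: growth inhibition of NCI-H596 cells, read out with a cell viability assay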
Description: SANGER: Inhibition of human NCI-H596 cell growth in a cell viability assay.

COLO-824 = assay type: functional, cell-based, Homo sapiens; conditions: Homo sapiens, COLO-824
Description: SANGER: Inhibition of human COLO-824 cell growth in a cell viability assay.

NB69 = assay type: functional, cell-based, Homo sapiens; conditions: Homo sapiens, NB69;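 note: growth inhibition of NB69 cells, determined by a cell viability assay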
Description: SANGER: Inhibition of human NB69 cell growth in a cell viability assay.

T84 = assay type: functional, cell-based, Homo sapiens; conditions: Homo sapiens, T84;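 note: growth inhibition measured with a cell viability readout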
Description: SANGER: Inhibition of human T84 cell growth in a cell viability assay.

M14 = assay type: functional, cell-based, Homo sapiens; conditions: Homo sapiens, M14;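 note: growth inhibition of M14 cells, read out with a cell viability assay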
Description: SANGER: Inhibition of human M14 cell growth in a cell viability assay.

HT-1376 = assay type: functional, cell-based, Homo sapiens; conditions: Homo sapiens, HT-1376
Description: SANGER: Inhibition of human HT-1376 cell growth in a cell viability assay.

ACHN = assay type: functional, cell-based, Homo sapiens; conditions: Homo sapiens, ACHN;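 note: cell viability read-out used to gauge how strongly growth of human ACHN cells is suppressed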
Description: SANGER: Inhibition of human ACHN cell growth in a cell viability assay.

DoTc2-4510 = assay type: functional, cell-based, Homo sapiens; conditions: Homo sapiens, DoTc2-4510
COR-L105 = assay type: functional, cell-based, Homo sapiens; conditions: Homo sapiens, COR-L105;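 note: cell growth inhibition determined with a viability assay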
Description: SANGER: Inhibition of human COR-L105 cell growth in a cell viability assay.

A 172 = assay type: functional, cell-based, Homo sapiens; conditions: Homo sapiens, A 172;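 note: growth inhibition of A172 cells, measured with a cell viability readout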
Description: SANGER: Inhibition of human A172 cell growth in a cell viability assay.

SW1990 = assay type: functional, cell-based, Homo sapiens; conditions: Homo sapiens, SW1990;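 note: cell growth inhibition determined with a viability assay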
Description: SANGER: Inhibition of human SW1990 cell growth in a cell viability assay.

GI-1 = assay type: functional, cell-based, Homo sapiens; conditions: Homo sapiens, GI-1;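 note: growth inhibition of human GI-1 cells, measured with a cell viability readout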
Description: SANGER: Inhibition of human GI-1 cell growth in a cell viability assay.

Huh-7 = assay type: functional, cell-based, Homo sapiens; conditions: Homo sapiens, Huh-7;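 note: HuH-7 cell growth inhibition, read out with a cell viability assay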
Description: SANGER: Inhibition of human HuH-7 cell growth in a cell viability assay.

ES3 = assay type: functional, cell-based, Homo sapiens; conditions: Homo sapiens, ES3;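 note: growth inhibition of ES3 cells, read out with a cell viability assay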
Description: SANGER: Inhibition of human ES3 cell growth in a cell viability assay.

MN-60 = assay type: functional, cell-based; conditions: Homo sapiens;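 note: growth inhibition of the MN-60 cell line, determined with a cell viability assay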
Description: SANGER: Inhibition of human MN-60 cell growth in a cell viability assay.

ASPC1 = assay type: functional, cell-based, Homo sapiens; conditions: Homo sapiens, ASPC1;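 note: growth inhibition of AsPC-1 cells, read out with a cell viability assay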
Description: SANGER: Inhibition of human AsPC-1 cell growth in a cell viability assay.

K5 = assay type: functional, cell-based, Homo sapiens; conditions: Homo sapiens, K5
Description: SANGER: Inhibition of human K5 cell growth in a cell viability assay.

D-247MG = assay type: functional, cell-based, Homo sapiens; conditions: Homo sapiens, D-247MG
Description: SANGER: Inhibition of human D-247MG cell growth in a cell viability assay.

UMUC3 = assay type: functional, cell-based, Homo sapiens; conditions: Homo sapiens, UMUC3;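 note: growth inhibition of human UM-UC-3 cells, read out with a cell viability assay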
Description: SANGER: Inhibition of human UM-UC-3 cell growth in a cell viability assay.

U-118-MG = assay type: functional, cell-based, Homo sapiens; conditions: Homo sapiens, U-118-MG
Description: SANGER: Inhibition of human U-118-MG cell growth in a cell viability assay.

G-401 = assay type: functional, cell-based, Homo sapiens; conditions: Homo sapiens, G-401
Description: SANGER: Inhibition of human G-401 cell growth in a cell viability assay.

DBTRG-05MG = assay type: functional, cell-based, Homo sapiens; conditions: Homo sapiens, DBTRG-05MG;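 note: cell viability assay measuring growth inhibition of human DBTRG-05MG cells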
Description: SANGER: Inhibition of human DBTRG-05MG cell growth in a cell viability assay.

MDA-MB-175-VII = assay type: functional, cell-based, Homo sapiens; conditions: Homo sapiens, MDA-MB-175-VII
SF-268 = assay type: functional, cell-based, Homo sapiens; conditions: Homo sapiens, SF-268;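 note: growth inhibition of SF-268 cells determined with a cell viability assay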
Description: SANGER: Inhibition of human SF268 cell growth in a cell viability assay.

PANC-03-27 = assay type: functional, cell-based, Homo sapiens; conditions: Homo sapiens, PANC-03-27
Description: SANGER: Inhibition of human PANC-03-27 cell growth in a cell viability assay.

NCI-N87 = assay type: functional, cell-based, Homo sapiens; conditions: Homo sapiens, NCI-N87;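 note: growth inhibition of human NCI-N87 cells, read out with a cell viability assay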
Description: SANGER: Inhibition of human NCI-N87 cell growth in a cell viability assay.

OAW-28 = assay type: functional, cell-based, Homo sapiens; conditions: Homo sapiens, OAW-28;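 note: growth inhibition of OAW-28 cells, read out with a cell viability assay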
Description: SANGER: Inhibition of human OAW-28 cell growth in a cell viability assay.

LB771-HNC = assay type: functional, cell-based, Homo sapiens; conditions: Homo sapiens, LB771-HNC;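 note: growth inhibition of LB771-HNC human cells, read out with a cell viability assay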
Description: SANGER: Inhibition of human LB771-HNC cell growth in a cell viability assay.

LB2518-MEL = assay type: functional, cell-based, Homo sapiens; conditions: Homo sapiens, LB2518-MEL;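 note: growth inhibition of human LB2518-MEL cells, measured with a cell viability assay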
Description: SANGER: Inhibition of human LB2518-MEL cell growth in a cell viability assay.

VA-ES-BJ = assay type: functional, cell-based, Homo sapiens; conditions: Homo sapiens, VA-ES-BJ;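 note: growth inhibition of the VA-ES-BJ cell line, read out by a cell viability assay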
Description: SANGER: Inhibition of human VA-ES-BJ cell growth in a cell viability assay.

COR-L88 = assay type: functional, cell-based; conditions: Homo sapiens;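 note: growth inhibition of COR-L88 cells, read out with a cell viability assay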
Description: SANGER: Inhibition of human COR-L88 cell growth in a cell viability assay.

CAL-120 = assay type: functional, cell-based, Homo sapiens; conditions: Homo sapiens, CAL-120;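 note: cell growth inhibition, read out as cell viability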
Description: SANGER: Inhibition of human CAL-120 cell growth in a cell viability assay.

CW-2 = assay type: functional, cell-based, Homo sapiens; conditions: Homo sapiens, CW-2;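 note: growth inhibition of CW-2 cells, read out by a cell viability assay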
Description: SANGER: Inhibition of human CW-2 cell growth in a cell viability assay.

DMS-114 = assay type: functional, cell-based, Homo sapiens; conditions: Homo sapiens, DMS-114
NCI-H23 = assay type: functional, cell-based, Homo sapiens; conditions: Homo sapiens, NCI-H23;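 note: cell viability assay measuring growth inhibition of NCI-H23 cells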
Description: SANGER: Inhibition of human NCI-H23 cell growth in a cell viability assay.

K562 = assay type: functional, cell-based; conditions: Homo sapiens
Description: SANGER: Inhibition of human K-562 cell growth in a cell viability assay.

HD-MY-Z = assay type: functional, cell-based, Homo sapiens; conditions: Homo sapiens, HD-MY-Z;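 note: growth inhibition of HD-MY-Z cells, read out with a cell viability assay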
Description: SANGER: Inhibition of human HD-MY-Z cell growth in a cell viability assay.

SK-N-FI = assay type: functional, cell-based, Homo sapiens; conditions: Homo sapiens, SK-N-FI;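 note: cell viability assay measuring growth inhibition of human SK-N-FI cells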
Description: SANGER: Inhibition of human SK-N-FI cell growth in a cell viability assay.

GP5d = assay type: functional, cell-based, Homo sapiens; conditions: Homo sapiens, GP5d;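 note: growth inhibition of human GP5d cells, read out with a cell viability assay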
Description: SANGER: Inhibition of human GP5d cell growth in a cell viability assay.

SMILES: O=C(NOCC1CC1)c1ccc(F)c(F)c1Nc1ccc(I)cc1Cl [CI-1040]
- IC50 (SW1710): 5620 nM
- IC50 (P30-OHK): 9650 nM
- IC50 (NCI-H1650): > 10000 nM
- IC50 (NB13): > 10000 nM
- IC50 (CP66-MEL): 488 nM
- IC50 (MMAC-SF): 110 nM
- IC50 (IST-MES1): > 10000 nM
- IC50 (EW-16): 8080 nM
- IC50 (NCI-H1563): > 10000 nM
- IC50 (AU565): > 10000 nM
- IC50 (NCI-H596): > 10000 nM
- IC50 (COLO-824): > 10000 nM
- IC50 (NB69): 1780 nM
- IC50 (T84): > 10000 nM
- IC50 (M14): 155 nM
- IC50 (HT-1376): > 10000 nM
- IC50 (ACHN): 7030 nM
- IC50 (DoTc2-4510): 7120 nM
- IC50 (COR-L105): 6650 nM
- IC50 (A 172): 6490 nM
- IC50 (SW1990): > 10000 nM
- IC50 (GI-1): > 10000 nM
- IC50 (Huh-7): 5270 nM
- IC50 (ES3): > 10000 nM
- IC50 (MN-60): > 10000 nM
- IC50 (ASPC1): 5370 nM
- IC50 (K5): 431 nM
- IC50 (D-247MG): > 10000 nM
- IC50 (UMUC3): 5180 nM
- IC50 (U-118-MG): > 10000 nM
- IC50 (G-401): > 10000 nM
- IC50 (DBTRG-05MG): 8750 nM
- IC50 (MDA-MB-175-VII): > 10000 nM
- IC50 (SF-268): > 10000 nM
- IC50 (PANC-03-27): 3350 nM
- IC50 (NCI-N87): > 10000 nM
- IC50 (OAW-28): > 10000 nM
- IC50 (LB771-HNC): > 10000 nM
- IC50 (LB2518-MEL): 716 nM
- IC50 (VA-ES-BJ): > 10000 nM
- IC50 (COR-L88): > 10000 nM
- IC50 (CAL-120): > 10000 nM
- IC50 (CW-2): > 10000 nM
- IC50 (DMS-114): > 10000 nM
- IC50 (NCI-H23): > 10000 nM
- IC50 (K562): 8840 nM
- IC50 (HD-MY-Z): 1570 nM
- IC50 (SK-N-FI): 8810 nM
- IC50 (GP5d): 983 nM

SMILES: Nc1ccn([C@@H]2O[C@H](CO)[C@@H](O)[C@@H]2O)c(=O)n1 [CYTARABINE]
- IC50 (SW1710): 1730 nM
- IC50 (P30-OHK): 56.5 nM
- IC50 (NCI-H1650): > 2000 nM
- IC50 (NB13): > 2000 nM
- IC50 (CP66-MEL): > 2000 nM
- IC50 (MMAC-SF): > 2000 nM
- IC50 (IST-MES1): > 2000 nM
- IC50 (EW-16): 266 nM
- IC50 (NCI-H1563): > 2000 nM
- IC50 (AU565): > 2000 nM
- IC50 (NCI-H596): > 2000 nM
- IC50 (COLO-824): > 2000 nM
- IC50 (NB69): 79.5 nM
- IC50 (T84): > 2000 nM
- IC50 (M14): 632 nM
- IC50 (HT-1376): 1680 nM
- IC50 (ACHN): 370 nM
- IC50 (DoTc2-4510): 1600 nM
- IC50 (COR-L105): 160 nM
- IC50 (A 172): > 2000 nM
- IC50 (SW1990): > 2000 nM
- IC50 (GI-1): 339 nM
- IC50 (Huh-7): > 2000 nM
- IC50 (ES3): 199 nM
- IC50 (MN-60): 935 nM
- IC50 (ASPC1): 1390 nM
- IC50 (K5): 43.2 nM
- IC50 (D-247MG): 1090 nM
- IC50 (UMUC3): 342 nM
- IC50 (U-118-MG): > 2000 nM
- IC50 (G-401): 758 nM
- IC50 (DBTRG-05MG): > 2000 nM
- IC50 (MDA-MB-175-VII): 1990 nM
- IC50 (SF-268): 1360 nM
- IC50 (PANC-03-27): 897 nM
- IC50 (NCI-N87): > 2000 nM
- IC50 (OAW-28): > 2000 nM
- IC50 (LB771-HNC): > 2000 nM
- IC50 (LB2518-MEL): > 2000 nM
- IC50 (VA-ES-BJ): 71.7 nM
- IC50 (COR-L88): > 2000 nM
- IC50 (CAL-120): > 2000 nM
- IC50 (CW-2): 613 nM
- IC50 (DMS-114): 1680 nM
- IC50 (NCI-H23): 1200 nM
- IC50 (K562): > 2000 nM
- IC50 (HD-MY-Z): 745 nM
- IC50 (SK-N-FI): > 2000 nM
- IC50 (GP5d): 102 nM
